Test results reported in patent US9943529B2, “Methods for reducing cellular proliferation and treating certain diseases” (BRIGHAM YOUNG UNIVERSITY, priority 2013, dated 2018).

Key:
Conditions in all cases: 10 μM, 48 hours
[1] = tested on: SW-620; experiment: NCI screen antiproliferative activity, sulforhodamine B, Colon Cancer panel; assay type: cell-based, human
[2] = tested on: A549/ATCC
[3] = tested on: K-562; experiment: NCI screen antiproliferative activity, sulforhodamine B, Leukemia panel; assay type: cell-based, human
[4] = tested on: CAKI-1
[5] = tested on: SR; experiment: NCI screen antiproliferative activity, sulforhodamine B, Leukemia panel; assay type: cell-based, human
[6] = tested on: RXF 393
[7] = tested on: TK-10
[8] = tested on: SNB-19
[9] = tested on: OVCAR-3
[10] = tested on: COLO 205; experiment: NCI screen antiproliferative activity, sulforhodamine B, Colon Cancer panel; assay type: cell-based, human
[11] = tested on: UACC-62
[12] = tested on: NCI-H522
[13] = tested on: HOP-62
[14] = tested on: OVCAR-5
[15] = tested on: CCRF-CEM; experiment: NCI screen antiproliferative activity, sulforhodamine B, Leukemia panel; assay type: cell-based, human
Description: (§1) The antiproliferative activity of compounds were determined in the National Cancer Institute (NCI) screen (Drug. Dev. Res. 1995, 34, 91-109; J. Natl. Cancer Inst. 1990, 82, 1107-1112; Drug Dev. Res. 1995, 34, 91-109). For certain compounds, cells of approximately 60 different human cancer cell lines were incubated for 48 hours with five 10-fold dilutions of the tested compounds starting from 100 μM and then treated with sulforhodamine B dye. For other compounds, cells of approximately 60 different human cancer cell lines were incubated for 48 hours with a concentration of 10 μM test compound. The ratios of recorded optical densities relative to that of the control were plotted as a function of the common logarithm of the tested compound concentrations or growth percent (for single concentration tests). The interpolation between the points located above and below the 50% percentage growth provided 50% growth inhibition (GI50) values. Total growth inhibition (TGI) and 50% lethal concentrations (LC50) were also calculated using reported methods. A “-” means not tested and/or not-determined.

[16] = tested on: HL-60(TB); experiment: as above; assay type: cell-based, human
Description: as §1

[17] = tested on: IGROV1
[18] = tested on: KM12; experiment: NCI screen antiproliferative activity, sulforhodamine B, Colon Cancer panel; assay type: cell-based, human
[19] = tested on: SK-OV-3
[20] = tested on: PC-3
[21] = tested on: T-47D
[22] = tested on: NCI-H23
[23] = tested on: HCT-116
[24] = tested on: MDA-MB-468; experiment: NCI screen antiproliferative activity, sulforhodamine B, Breast Cancer panel; assay type: cell-based, human
Description: as §1

[25] = tested on: HT29
[26] = tested on: SK-MEL-5; experiment: NCI screen antiproliferative activity, sulforhodamine B, Melanoma panel; assay type: cell-based, human
[27] = tested on: HCC-2998
[28] = tested on: DU-145
[29] = tested on: MOLT-4; experiment: NCI screen antiproliferative activity, sulforhodamine B, Leukemia panel; assay type: cell-based, human
[30] = tested on: SNB-75
[31] = tested on: ACHN
[32] = tested on: A498; experiment: NCI screen antiproliferative activity, sulforhodamine B, Renal Cancer panel; assay type: cell-based, human
Description: as §1

[33] = tested on: 786-0
[34] = tested on: OVCAR-4
[35] = tested on: NCI-H322M
[36] = tested on: UO-31
[37] = tested on: MALME-3M; experiment: NCI screen antiproliferative activity, sulforhodamine B, Melanoma panel; assay type: cell-based, human
[38] = tested on: BT-549
[39] = tested on: SN12C
[40] = tested on: MDA-MB-231/ATCC
[41] = tested on: MDA-MB-435
[42] = tested on: HOP-92
[43] = tested on: RPMI-8226; experiment: NCI screen antiproliferative activity, sulforhodamine B, Leukemia panel; assay type: cell-based, human
[44] = tested on: M14
[45] = tested on: NCI-H226
[46] = tested on: HS 578T; experiment: NCI screen antiproliferative activity, sulforhodamine B, Breast Cancer panel; assay type: cell-based, human
[47] = tested on: HCT-15
[48] = tested on: LOX IMVI; experiment: NCI screen antiproliferative activity, sulforhodamine B, Melanoma panel; assay type: cell-based, human
[49] = tested on: SF-268
[50] = tested on: SK-MEL-28
[51] = tested on: OVCAR-8
[52] = tested on: NCI/ADR-RES; experiment: NCI screen antiproliferative activity, sulforhodamine B, Ovarian Cancer panel; assay type: cell-based, human
Description: as §1

[53] = tested on: SK-MEL-2
[54] = tested on: MCF7
[55] = tested on: NCI-H460
[56] = tested on: SF-539

SMILES: CCCCCCCCOC(=O)CC[C@@H](C)[C@H]1CC[C@H]2[C@@H]3[C@H](OC(=O)CCN)C[C@@H]4C[C@H](OC(=O)CCN)CC[C@]4(C)[C@H]3C[C@H](OC(=O)CCN)[C@]12C [CSA-44]
- Growth Percent [1]: 20.01%
- Growth Percent [2]: 81.31%
- Growth Percent [3]: −74.53%
- Growth Percent [4]: 107.94%
- Growth Percent [5]: −12.92%
- Growth Percent [6]: 108.72%
- Growth Percent [7]: 135.94%
- Growth Percent [8]: 115.74%
- Growth Percent [9]: 107.53%
- Growth Percent [10]: 66.35%
- Growth Percent [11]: 103.61%
- Growth Percent [12]: 10.80%
- Growth Percent [13]: 37.66%
- Growth Percent [14]: 92.12%
- Growth Percent [15]: −37.46%
- Growth Percent [16]: 43.69%
- Growth Percent [17]: 77.22%
- Growth Percent [18]: 77.75%
- Growth Percent [19]: 90.91%
- Growth Percent [20]: 87.30%
- Growth Percent [21]: 88.83%
- Growth Percent [22]: 90.31%
- Growth Percent [23]: 49.30%
- Growth Percent [24]: 3.95%
- Growth Percent [25]: 39.62%
- Growth Percent [26]: 96.98%
- Growth Percent [27]: 84.20%
- Growth Percent [28]: 74.35%
- Growth Percent [29]: 26.15%
- Growth Percent [30]: 63.88%
- Growth Percent [31]: 96.19%
- Growth Percent [32]: 130.78%
- Growth Percent [33]: 99.05%
- Growth Percent [34]: 75.66%
- Growth Percent [35]: 71.42%
- Growth Percent [36]: 104.69%
- Growth Percent [37]: 67.83%
- Growth Percent [38]: 124.30%
- Growth Percent [39]: 77.59%
- Growth Percent [40]: 69.26%
- Growth Percent [41]: 74.13%
- Growth Percent [42]: 40.75%
- Growth Percent [43]: 77.75%
- Growth Percent [44]: 84.43%
- Growth Percent [45]: 89.76%
- Growth Percent [46]: 79.51%
- Growth Percent [47]: 101.79%
- Growth Percent [48]: 63.17%
- Growth Percent [49]: 69.72%
- Growth Percent [50]: 58.43%
- Growth Percent [51]: 69.53%
- Growth Percent [52]: 100.83%
- Growth Percent [53]: 126.21%
- Growth Percent [54]: 10.84%
- Growth Percent [55]: 73.70%
- Growth Percent [56]: 56.26%
